The values below come from PubChem BioAssay (NCI).

“And” between values parts separate entries of the source, which are not always exact repeats. Equal entries are not always repeated.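 Grown in 96-well plates, cells were treated for 48 hours with each compound at five concentrations. Insufficient inhibition: endpoint recorded as highest concentration tested. Abbreviation: GI50, concentration required for 50% inhibition of growth. TGI denotes the concentration required for complete inhibition of growth.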 Bounds are passed on as bounds.

Test systems include A549 NSCLC; A498 renal; SK-OV-3 ovarian; SK-MEL-5 melanoma; HOP-92 NSCLC; SF-539 CNS; MALME-3M melanoma; CCRF-CEM leukemia; SNB-19 CNS; UO-31 renal.
Common to all, as to assay: NCI-60 cell line screen, 48 h

Regarding `CC[C@]1(O)C[C@H]2CN(CCc3c([nH]c4ccccc34)C(C(=O)OC)(c3cc4c(cc3OC)N(C)[C@H]3[C@@](O)(C(=O)OC)[C@H](OC(C)=O)[C@]5(CC)[C@@H]6C[C@@H]6CN6CC[C@]43[C@@H]65)C2)C1` (some centres undefined), the GI50 is 0.00372 µM with A549 NSCLC; 0.00275 µM in the assay with A498 renal; 0.00285 µM in the assay with SK-OV-3 ovarian; 0.00184 µM with SK-MEL-5 melanoma; 0.00682 µM in the assay on HOP-92 NSCLC; 0.0226 µM with SF-539 CNS. For the same molecule, the GI50 is 0.00659 µM with MALME-3M melanoma, 0.00456 µM in the assay on CCRF-CEM leukemia, 0.00667 µM in the assay with SNB-19 CNS and 0.076 µM in the assay with UO-31 renal. Moreover, the TGI in the assay on A549 NSCLC was more than 14.3 µM; with A498 renal it was 0.012 µM; in the assay with SK-OV-3 ovarian, 0.0176 µM; with SK-MEL-5 melanoma, 0.0313 µM; in the assay on HOP-92 NSCLC, 0.827 µM; in the assay with SF-539 CNS, 3.04 µM. Further, the TGI with MALME-3M melanoma is more than 8.73 µM; in the assay on CCRF-CEM leukemia, more than 12.9 µM; in the assay on SNB-19 CNS, more than 14.3 µM; in the assay with UO-31 renal, 7.66 µM.

In the case of `O=C(Nc1ncc(Cc2cccc(C(F)(F)F)c2)s1)c1ccc2c(c1)OCCO2`, the GI50 in the assay with A549 NSCLC is 0.451 µM; in the assay with A498 renal, 0.0484 µM; in the assay with SK-OV-3 ovarian, 0.746 µM; in the assay on SK-MEL-5 melanoma it was 0.281 µM; with HOP-92 NSCLC, 2.97 µM; in the assay on SF-539 CNS it was 0.251 µM. In addition, the GI50 in the assay with MALME-3M melanoma was 0.569 µM; with CCRF-CEM leukemia, 0.411 µM; with SNB-19 CNS it was 0.506 µM; in the assay on UO-31 renal, 1.09 µM. Moreover, the TGI in the assay with A549 NSCLC is more than 100 µM; in the assay with A498 renal, 0.442 µM; with SK-OV-3 ovarian it was 46.6 µM; with SK-MEL-5 melanoma, 2.36 µM; in the assay on HOP-92 NSCLC it was more than 72.2 µM; with SF-539 CNS it was 0.916 µM. Also, the TGI with MALME-3M melanoma was more than 60.9 µM; in the assay with CCRF-CEM leukemia it was more than 100 µM; in the assay on SNB-19 CNS it was more than 68.4 µM; in the assay on UO-31 renal, more than 100 µM.

For `CC(=O)N/C(=C\c1ccccc1/C=C(\NC(C)=O)c1nc2cc(C)c(C)cc2[nH]1)c1nc2cc(C)c(C)cc2[nH]1`, the TGI with A549 NSCLC is more than 100 µM; in the assay on A498 renal, more than 100 µM; in the assay on SK-OV-3 ovarian it was 69.1 µM; in the assay on SK-MEL-5 melanoma, 43 µM; in the assay on HOP-92 NSCLC it was 62.1 µM; in the assay with SF-539 CNS, 44.3 µM. Besides, the TGI is 54.2 µM in the assay with MALME-3M melanoma, more than 100 µM in the assay on CCRF-CEM leukemia, more than 100 µM with SNB-19 CNS and 12.5 µM in the assay on UO-31 renal.

With `COc1ccc(/C=C\c2cc(OC)c(OC)c(OC)c2)cc1OCC(=O)O`, the TGI in the assay on A549 NSCLC is more than 100 µM; with A498 renal, more than 83 µM; with SK-OV-3 ovarian, 94 µM; in the assay on SK-MEL-5 melanoma it was 50.1 µM; in the assay on HOP-92 NSCLC it was 55.7 µM; with SF-539 CNS, 11.5 µM. Also, the TGI in the assay on MALME-3M melanoma is more than 100 µM; with CCRF-CEM leukemia, more than 100 µM; in the assay on SNB-19 CNS, more than 45.6 µM; in the assay on UO-31 renal it was more than 94.8 µM.

On to `O=c1[nH]c(-c2cccc(F)c2)cc2cc(F)ccc12`, for which the GI50 in the assay with A549 NSCLC is 0.798 µM; in the assay with A498 renal, 0.244 µM; in the assay with SK-OV-3 ovarian it was 0.616 µM; in the assay with SK-MEL-5 melanoma it was 0.334 µM; with HOP-92 NSCLC, more than 100 µM; in the assay with SF-539 CNS, 0.272 µM. Moreover, the GI50 in the assay on MALME-3M melanoma was more than 100 µM; in the assay with CCRF-CEM leukemia, 0.369 µM; in the assay on SNB-19 CNS, 0.664 µM; in the assay with UO-31 renal, 1.65 µM. In addition, the TGI with A549 NSCLC is more than 100 µM; in the assay with A498 renal it was 2.94 µM; with SK-OV-3 ovarian, more than 100 µM; in the assay on SK-MEL-5 melanoma, more than 100 µM; with HOP-92 NSCLC, more than 100 µM; in the assay with SF-539 CNS, 1.7 µM. For the same molecule, the TGI in the assay on MALME-3M melanoma, in the assay with CCRF-CEM leukemia, in the assay with SNB-19 CNS and with UO-31 renal was more than 100 µM each time.

For `O=Cc1cc2c(cc1-c1cc3c(cc1C=O)OCO3)OCO2`, the TGI in the assay with A549 NSCLC, in the assay on A498 renal, with SK-OV-3 ovarian, with SK-MEL-5 melanoma, in the assay with HOP-92 NSCLC and in the assay with SF-539 CNS was more than 100 µM in each case. Also, the TGI with MALME-3M melanoma was more than 100 µM; in the assay with CCRF-CEM leukemia, 82.7 µM; in the assay on SNB-19 CNS it was more than 100 µM; in the assay with UO-31 renal, more than 100 µM.

Consider `CC[C@@H]1NC(C(=O)OC)Cc2c1[nH]c1ccccc21` (some centres undefined), for which the TGI in the assay on A549 NSCLC, in the assay with A498 renal, with SK-OV-3 ovarian, with SK-MEL-5 melanoma, in the assay with HOP-92 NSCLC and with SF-539 CNS was more than 100 µM throughout. Besides, the TGI in the assay with MALME-3M melanoma, with CCRF-CEM leukemia, in the assay on SNB-19 CNS and with UO-31 renal was more than 100 µM throughout.

For the molecule `CCOC(=O)Cc1csc(Nc2ccccc2[N+](=O)[O-])n1`, the TGI in the assay on A549 NSCLC, in the assay with A498 renal, with SK-OV-3 ovarian, in the assay with SK-MEL-5 melanoma, in the assay on HOP-92 NSCLC and with SF-539 CNS was more than 100 µM each time. Further, the TGI in the assay with MALME-3M melanoma, with CCRF-CEM leukemia, with SNB-19 CNS and in the assay with UO-31 renal was more than 100 µM throughout.

With `Cc1nc2c(N)ncnc2o1`, the TGI in the assay on A549 NSCLC, in the assay with A498 renal, in the assay with SK-OV-3 ovarian, with SK-MEL-5 melanoma, with HOP-92 NSCLC and in the assay on SF-539 CNS was more than 100 µM in each case. In addition, the TGI with MALME-3M melanoma, in the assay with CCRF-CEM leukemia, in the assay on SNB-19 CNS and with UO-31 renal was more than 100 µM each time.

For the molecule `CN(C)CCN1CCC(Cc2ccccc2)CC1`, the GI50 in the assay on A549 NSCLC was more than 80 µM; with A498 renal, 47.2 µM; with SK-OV-3 ovarian, more than 80 µM; in the assay with SK-MEL-5 melanoma, 43.2 µM; with HOP-92 NSCLC it was 41.4 µM; in the assay on SF-539 CNS it was more than 80 µM. Besides, the GI50 with MALME-3M melanoma, in the assay with CCRF-CEM leukemia, with SNB-19 CNS and in the assay with UO-31 renal was more than 80 µM throughout. The TGI in the assay with A549 NSCLC, in the assay with A498 renal, with SK-OV-3 ovarian, in the assay on SK-MEL-5 melanoma, in the assay with HOP-92 NSCLC and in the assay on SF-539 CNS was more than 80 µM in each case. Also, the TGI in the assay with MALME-3M melanoma, in the assay on CCRF-CEM leukemia, in the assay on SNB-19 CNS and with UO-31 renal was more than 80 µM in each case.

As to `O=C1c2cccc3cccc(c23)C(=O)N1CCN(CCO)CCO`, the TGI in the assay with A549 NSCLC was 70.7 µM; in the assay on A498 renal, 41.3 µM; in the assay on SK-OV-3 ovarian, more than 100 µM; in the assay with SK-MEL-5 melanoma it was 33.6 µM; in the assay on HOP-92 NSCLC it was 83 µM; with SF-539 CNS it was 86.5 µM. The TGI is 46.3 µM with MALME-3M melanoma, more than 100 µM in the assay with CCRF-CEM leukemia, more than 100 µM in the assay on SNB-19 CNS and more than 100 µM in the assay with UO-31 renal.

For the molecule `C/C(=N\NC(N)=O)c1sc(-c2nc(C)c(/C(C)=N/NC(N)=O)s2)nc1C`, the TGI in the assay with A549 NSCLC, in the assay with A498 renal, in the assay on SK-OV-3 ovarian, in the assay with SK-MEL-5 melanoma, with HOP-92 NSCLC and in the assay on SF-539 CNS was more than 100 µM in each case. The TGI in the assay with MALME-3M melanoma, in the assay with CCRF-CEM leukemia, with SNB-19 CNS and in the assay with UO-31 renal was more than 100 µM each time.

`NC(=O)c1cc(I)ccc1NC(=O)/C=C/c1ccccc1`: the GI50 in the assay with A549 NSCLC is 1.33 µM; in the assay with A498 renal, 1.28 µM; in the assay on SK-OV-3 ovarian it was 0.604 µM; in the assay with SK-MEL-5 melanoma, 0.38 µM; with HOP-92 NSCLC it was 17 µM; in the assay with SF-539 CNS, 0.36 µM. Further, the GI50 with MALME-3M melanoma is 2.1 µM; with CCRF-CEM leukemia, 0.36 µM; in the assay with SNB-19 CNS it was 0.645 µM; with UO-31 renal, 1.77 µM. Further, the TGI was more than 100 µM with A549 NSCLC; 13 µM in the assay with A498 renal; 12.8 µM in the assay with SK-OV-3 ovarian; 12.5 µM in the assay on SK-MEL-5 melanoma; 97.7 µM with HOP-92 NSCLC; 1.53 µM in the assay on SF-539 CNS. Further, the values for the TGI in the assay on MALME-3M melanoma, in the assay on SNB-19 CNS and with UO-31 renal were more than 100 µM, 13.7 µM and more than 48.9 µM, respectively.

Consider `NC(=S)N/N=C/c1ncccc1O`, for which the GI50 was 3.39 µM with A549 NSCLC; 3.74 µM in the assay with A498 renal; 4.76 µM in the assay with SK-OV-3 ovarian; 2.04 µM and 1.26 µM with SK-MEL-5 melanoma; 6.55 µM in the assay with HOP-92 NSCLC; 0.567 µM and 0.242 µM in the assay with SF-539 CNS. In addition, the GI50 in the assay with MALME-3M melanoma was 4.47 µM; in the assay on CCRF-CEM leukemia, 1.15 µM; with SNB-19 CNS it was 3.61 µM; in the assay on UO-31 renal, 1.48 µM. For the same molecule, the TGI was > 59.4 µM and 31.3 µM in the assay on A549 NSCLC; 29.2 µM and 32.4 µM with A498 renal; 49.1 µM and 130 µM in the assay with SK-OV-3 ovarian; 35.5 µM and 67.2 µM in the assay on SK-MEL-5 melanoma; 31.2 µM and 90.7 µM with HOP-92 NSCLC; 2.69 µM and 1.26 µM with SF-539 CNS. Moreover, the TGI is > 64.8 µM and 156 µM with MALME-3M melanoma; 21.8 µM in the assay with CCRF-CEM leukemia; 295 µM in the assay with SNB-19 CNS; > 33.8 µM and 6.46 µM with UO-31 renal.
